Consider twelve molecules from ChEMBL document CHEMBL5465560, “Selectivity Literature for EUbOPEN Chemogenomic Library” (2024).

Experiment [1] deals with T1, Testis-specific serine/threonine-protein kinase 2 (Homo sapiens) (UniProt Q96PF2).
T1 sequence (whole entry): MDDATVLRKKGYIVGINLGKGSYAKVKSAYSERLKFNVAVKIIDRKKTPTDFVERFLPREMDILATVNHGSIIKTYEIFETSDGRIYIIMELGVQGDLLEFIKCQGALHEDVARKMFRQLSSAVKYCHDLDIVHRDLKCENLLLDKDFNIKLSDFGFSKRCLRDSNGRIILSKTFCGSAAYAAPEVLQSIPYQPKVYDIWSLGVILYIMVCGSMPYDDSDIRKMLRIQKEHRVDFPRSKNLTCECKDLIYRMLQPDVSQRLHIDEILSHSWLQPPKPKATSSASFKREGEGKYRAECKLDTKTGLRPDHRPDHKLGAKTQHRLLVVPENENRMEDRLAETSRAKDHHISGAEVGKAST
Briefly: Selectivity interaction (Upstate Kinase Profiler service (Millipore)) EUB0000056c TSSK2. To be noted: at 1 µM.

The test system of experiment [2] is Tyrosine-protein kinase ABL1 (Homo sapiens), P00519 [T315I]. Briefly: Selectivity interaction (Ambit KINOMEscan and KiNATiv profiling in Jurkat cells) EUB0000090b ABL1. Format: cell-based. To be noted: at 1 µM.
The target in experiment [3] is Serine/threonine-protein kinase pim-2 (Homo sapiens, UniProt Q9P1W9). Kind of experiment: Selectivity interaction (Ambit KINOMEscan and KiNATiv profiling in Jurkat cells) EUB0000090b PIM2. The experiment is classed as cell-based. The note with it: at 1 µM.
Chain of Serine/threonine-protein kinase pim-2 (Q9P1W9 whole entry, looked up): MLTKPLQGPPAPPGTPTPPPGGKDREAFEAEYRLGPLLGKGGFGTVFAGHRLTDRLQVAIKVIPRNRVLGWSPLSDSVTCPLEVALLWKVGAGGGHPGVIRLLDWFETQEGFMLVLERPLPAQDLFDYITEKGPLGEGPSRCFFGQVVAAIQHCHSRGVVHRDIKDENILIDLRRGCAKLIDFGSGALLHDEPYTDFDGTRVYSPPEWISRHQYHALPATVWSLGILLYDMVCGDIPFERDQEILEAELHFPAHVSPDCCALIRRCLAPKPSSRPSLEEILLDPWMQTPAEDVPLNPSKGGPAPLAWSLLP
Experiment [4] deals with Cyclin-dependent kinase-like 1 (Homo sapiens) (UniProt Q00532). Kind of experiment: Selectivity interaction (Ambit KINOMEscan and KiNATiv profiling in Jurkat cells) EUB0000090b CDKL1. Format: cell-based. To be noted: at 1 µM.
Chain of Cyclin-dependent kinase-like 1 (Homo sapiens) (Q00532 whole entry): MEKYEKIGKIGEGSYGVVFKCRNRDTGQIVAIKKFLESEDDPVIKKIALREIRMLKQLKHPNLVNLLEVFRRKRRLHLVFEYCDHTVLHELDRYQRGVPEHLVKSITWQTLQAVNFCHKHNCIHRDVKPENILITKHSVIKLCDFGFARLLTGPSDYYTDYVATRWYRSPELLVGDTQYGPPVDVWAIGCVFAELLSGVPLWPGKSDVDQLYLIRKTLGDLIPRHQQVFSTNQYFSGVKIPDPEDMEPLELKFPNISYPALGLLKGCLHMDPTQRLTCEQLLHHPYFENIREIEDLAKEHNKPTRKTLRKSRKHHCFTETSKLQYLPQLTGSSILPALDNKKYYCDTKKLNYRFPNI
The target of experiment [5] is Cyclin-dependent kinase 7 (Homo sapiens, UniProt P50613). Kind of experiment: Selectivity interaction (Ambit KINOMEscan and KiNATiv profiling in Jurkat cells) EUB0000090b CDK7. Format: cell-based. To be noted: at 1 µM.
Chain of Cyclin-dependent kinase 7 (P50613 whole entry): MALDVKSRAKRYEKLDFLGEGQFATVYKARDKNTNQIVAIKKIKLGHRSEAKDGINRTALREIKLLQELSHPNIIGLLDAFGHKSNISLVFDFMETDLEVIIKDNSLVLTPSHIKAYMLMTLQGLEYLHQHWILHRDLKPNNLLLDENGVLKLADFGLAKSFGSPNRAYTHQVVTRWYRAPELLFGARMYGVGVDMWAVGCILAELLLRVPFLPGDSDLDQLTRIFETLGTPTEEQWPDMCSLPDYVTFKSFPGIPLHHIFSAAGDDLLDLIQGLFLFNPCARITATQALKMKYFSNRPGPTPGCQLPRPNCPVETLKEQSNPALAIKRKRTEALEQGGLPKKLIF
Experiment [6] deals with Cyclin-dependent kinase 17 (Homo sapiens) (UniProt Q00537). To be noted: at 10 µM.
Experiment [7] deals with Insulin-like growth factor 1 receptor (Homo sapiens, UniProt P08069). Briefly: Selectivity interaction (KinomeScan (DiscoverX)) EUB0001049a IGF1R. To be noted: at 1 µM.
Chain of Insulin-like growth factor 1 receptor (P08069 31-736 limits assumed): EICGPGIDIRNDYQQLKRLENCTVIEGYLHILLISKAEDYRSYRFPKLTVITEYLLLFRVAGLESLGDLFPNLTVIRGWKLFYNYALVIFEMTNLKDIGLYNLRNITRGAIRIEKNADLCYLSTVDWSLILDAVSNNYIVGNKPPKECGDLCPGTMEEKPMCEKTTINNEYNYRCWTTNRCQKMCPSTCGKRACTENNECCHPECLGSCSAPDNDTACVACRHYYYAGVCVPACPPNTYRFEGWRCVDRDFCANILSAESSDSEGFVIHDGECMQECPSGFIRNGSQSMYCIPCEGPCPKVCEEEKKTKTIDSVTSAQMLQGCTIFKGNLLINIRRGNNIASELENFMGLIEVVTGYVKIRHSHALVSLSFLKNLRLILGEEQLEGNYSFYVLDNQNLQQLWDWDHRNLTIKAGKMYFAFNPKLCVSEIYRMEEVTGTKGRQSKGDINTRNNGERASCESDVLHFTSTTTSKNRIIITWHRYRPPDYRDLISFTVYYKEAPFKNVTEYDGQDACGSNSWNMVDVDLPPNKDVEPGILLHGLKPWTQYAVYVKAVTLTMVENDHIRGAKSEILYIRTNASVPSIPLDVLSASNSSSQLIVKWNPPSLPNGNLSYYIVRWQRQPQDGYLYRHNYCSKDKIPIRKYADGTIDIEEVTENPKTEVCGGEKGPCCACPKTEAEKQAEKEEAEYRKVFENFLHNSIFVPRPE
Chain of Insulin-like growth factor 1 receptor (P08069 741-1367 limits assumed): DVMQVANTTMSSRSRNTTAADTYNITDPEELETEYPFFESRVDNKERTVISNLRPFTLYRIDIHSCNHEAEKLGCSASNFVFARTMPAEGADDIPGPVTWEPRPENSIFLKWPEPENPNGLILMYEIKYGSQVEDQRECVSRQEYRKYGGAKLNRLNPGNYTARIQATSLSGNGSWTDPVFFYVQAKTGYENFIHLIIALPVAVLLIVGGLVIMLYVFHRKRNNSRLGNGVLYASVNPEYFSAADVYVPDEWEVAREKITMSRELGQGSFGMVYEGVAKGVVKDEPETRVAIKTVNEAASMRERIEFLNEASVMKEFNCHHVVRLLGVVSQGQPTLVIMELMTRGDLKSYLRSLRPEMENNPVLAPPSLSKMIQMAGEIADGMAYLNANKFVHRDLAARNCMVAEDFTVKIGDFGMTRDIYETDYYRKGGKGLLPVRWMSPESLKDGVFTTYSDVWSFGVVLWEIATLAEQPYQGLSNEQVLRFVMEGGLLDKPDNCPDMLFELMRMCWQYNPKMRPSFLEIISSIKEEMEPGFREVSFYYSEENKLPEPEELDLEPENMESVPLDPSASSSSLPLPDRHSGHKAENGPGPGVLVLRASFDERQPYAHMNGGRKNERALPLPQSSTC
The next experiment deals with Activated CDC42 kinase 1 (Homo sapiens, UniProt Q07912). Briefly: Selectivity interaction (KinomeScan (DiscoverX)) EUB0000655a TNK2. To be noted: at 10 µM.
The target of experiment [8] is Hepatocyte growth factor-like protein (Homo sapiens) (UniProt P26927).
Experiment [9] deals with T2, Serine/threonine-protein kinase DCLK1 (Homo sapiens) (UniProt O15075).
T2 sequence (whole entry): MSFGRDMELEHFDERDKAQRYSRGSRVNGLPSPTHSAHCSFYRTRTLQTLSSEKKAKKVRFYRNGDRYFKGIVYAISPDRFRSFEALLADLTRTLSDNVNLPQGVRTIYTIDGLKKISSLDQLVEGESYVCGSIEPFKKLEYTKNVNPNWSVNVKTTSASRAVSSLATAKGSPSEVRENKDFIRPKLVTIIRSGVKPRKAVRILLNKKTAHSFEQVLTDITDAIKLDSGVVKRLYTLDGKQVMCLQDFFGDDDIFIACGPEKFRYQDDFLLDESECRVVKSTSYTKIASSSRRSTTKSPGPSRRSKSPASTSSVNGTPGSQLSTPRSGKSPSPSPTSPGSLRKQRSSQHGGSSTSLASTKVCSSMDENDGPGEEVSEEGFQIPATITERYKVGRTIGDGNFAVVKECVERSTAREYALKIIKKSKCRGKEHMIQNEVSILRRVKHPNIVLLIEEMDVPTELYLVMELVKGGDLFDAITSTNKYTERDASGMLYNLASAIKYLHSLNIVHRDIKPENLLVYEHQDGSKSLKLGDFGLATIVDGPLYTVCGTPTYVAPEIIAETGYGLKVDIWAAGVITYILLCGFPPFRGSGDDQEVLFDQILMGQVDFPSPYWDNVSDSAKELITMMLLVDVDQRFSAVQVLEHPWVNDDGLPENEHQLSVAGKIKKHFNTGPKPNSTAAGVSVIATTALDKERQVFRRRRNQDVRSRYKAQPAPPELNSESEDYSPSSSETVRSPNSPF
Briefly: Selectivity interaction (Kinase panel (Z-LYTE Assay)) EUB0001632a DCLK1. To be noted: at 10 µM.

In the next experiment the target is CDK1/Cyclin A (Homo sapiens, UniProt P06493+P20248+P78396). Kind of experiment: Selectivity interaction (Enzymatic assay (Reaction Biology)) EUB0001632a CDK1. The experiment is classed as protein-complex assay.
Experiment [10] addresses Tyrosine-protein kinase Fyn (Homo sapiens) (UniProt P06241). Kind of experiment: Selectivity interaction (ActivX KiNativ screen (kinase selectivity in THP-1 cell lysates)) EUB0000639a FYN. Format: subcellular. The note with it: lysate, at 5 µM.
The target of experiment [11] is Tyrosine-protein kinase BTK (Homo sapiens, UniProt Q06187). Briefly: Selectivity interaction (ActivX KiNativ screen (kinase selectivity in THP-1 cell lysates)) EUB0000639a BTK. To be noted: lysate, at 0.2 µM. The experiment is classed as subcellular.
Chain of Tyrosine-protein kinase BTK (Q06187 whole entry): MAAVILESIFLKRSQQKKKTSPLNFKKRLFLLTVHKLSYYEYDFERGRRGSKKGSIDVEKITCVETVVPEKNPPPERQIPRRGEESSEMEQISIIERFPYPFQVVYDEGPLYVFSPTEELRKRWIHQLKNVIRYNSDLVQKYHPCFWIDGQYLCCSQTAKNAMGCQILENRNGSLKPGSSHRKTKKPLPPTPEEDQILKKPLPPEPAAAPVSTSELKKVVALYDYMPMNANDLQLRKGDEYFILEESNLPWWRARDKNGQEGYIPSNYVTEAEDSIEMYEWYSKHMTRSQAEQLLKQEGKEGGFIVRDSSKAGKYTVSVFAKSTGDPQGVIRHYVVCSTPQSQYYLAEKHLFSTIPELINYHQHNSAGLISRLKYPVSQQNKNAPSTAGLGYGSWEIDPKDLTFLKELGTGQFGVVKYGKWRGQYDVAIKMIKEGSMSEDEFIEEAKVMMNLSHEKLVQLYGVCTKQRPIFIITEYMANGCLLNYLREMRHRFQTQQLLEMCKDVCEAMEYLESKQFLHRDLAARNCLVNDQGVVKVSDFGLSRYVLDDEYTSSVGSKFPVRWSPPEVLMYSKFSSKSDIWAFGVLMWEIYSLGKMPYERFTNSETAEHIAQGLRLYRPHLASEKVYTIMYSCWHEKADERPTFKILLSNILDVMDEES
Experiment [12] addresses T3, Serine/threonine-protein kinase Nek11 (Homo sapiens) (UniProt Q8NG66).
T3 sequence (whole entry): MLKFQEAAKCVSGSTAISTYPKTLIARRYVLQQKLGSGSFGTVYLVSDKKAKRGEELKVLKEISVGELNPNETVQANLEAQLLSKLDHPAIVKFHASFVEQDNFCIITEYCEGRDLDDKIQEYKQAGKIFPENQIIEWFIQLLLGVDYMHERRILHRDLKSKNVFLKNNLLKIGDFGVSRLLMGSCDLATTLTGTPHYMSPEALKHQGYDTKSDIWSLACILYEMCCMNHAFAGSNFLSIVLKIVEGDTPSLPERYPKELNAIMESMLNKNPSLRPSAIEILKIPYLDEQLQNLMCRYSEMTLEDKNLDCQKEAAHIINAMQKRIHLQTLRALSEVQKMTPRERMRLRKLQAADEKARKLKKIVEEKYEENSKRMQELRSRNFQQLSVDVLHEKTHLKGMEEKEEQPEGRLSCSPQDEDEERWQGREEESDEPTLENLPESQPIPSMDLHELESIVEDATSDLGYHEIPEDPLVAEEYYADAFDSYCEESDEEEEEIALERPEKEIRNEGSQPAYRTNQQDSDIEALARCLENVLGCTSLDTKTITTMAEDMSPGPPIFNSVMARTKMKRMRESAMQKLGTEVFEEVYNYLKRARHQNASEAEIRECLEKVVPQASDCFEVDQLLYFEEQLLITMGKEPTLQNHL
Briefly: Selectivity interaction (KinomeScan (DiscoverX)) EUB0000229b NEK11. To be noted: at 10 µM.

In experiment [13] the target is Tyrosine-protein kinase JAK2 (Homo sapiens, UniProt O60674). Kind of experiment: Selectivity interaction (Kinase panel (33PanQinase(R) Activity Assay)) EUB0000877a JAK2.
Experiment [14] has as its target Serine/threonine-protein kinase Chk2 (Homo sapiens) (UniProt O96017). Kind of experiment: Selectivity interaction (KinomeScan (DiscoverX)) EUB0001619a CHEK2. To be noted: at 1 µM.
Experiment [15] has as its target Vascular endothelial growth factor receptor 2 (Homo sapiens, UniProt P35968). Kind of experiment: Selectivity interaction (Kinase panel (literature)) EUB0001199aCl KDR. To be noted: at 1 µM.

Chain of Vascular endothelial growth factor receptor 2 (P35968 whole entry): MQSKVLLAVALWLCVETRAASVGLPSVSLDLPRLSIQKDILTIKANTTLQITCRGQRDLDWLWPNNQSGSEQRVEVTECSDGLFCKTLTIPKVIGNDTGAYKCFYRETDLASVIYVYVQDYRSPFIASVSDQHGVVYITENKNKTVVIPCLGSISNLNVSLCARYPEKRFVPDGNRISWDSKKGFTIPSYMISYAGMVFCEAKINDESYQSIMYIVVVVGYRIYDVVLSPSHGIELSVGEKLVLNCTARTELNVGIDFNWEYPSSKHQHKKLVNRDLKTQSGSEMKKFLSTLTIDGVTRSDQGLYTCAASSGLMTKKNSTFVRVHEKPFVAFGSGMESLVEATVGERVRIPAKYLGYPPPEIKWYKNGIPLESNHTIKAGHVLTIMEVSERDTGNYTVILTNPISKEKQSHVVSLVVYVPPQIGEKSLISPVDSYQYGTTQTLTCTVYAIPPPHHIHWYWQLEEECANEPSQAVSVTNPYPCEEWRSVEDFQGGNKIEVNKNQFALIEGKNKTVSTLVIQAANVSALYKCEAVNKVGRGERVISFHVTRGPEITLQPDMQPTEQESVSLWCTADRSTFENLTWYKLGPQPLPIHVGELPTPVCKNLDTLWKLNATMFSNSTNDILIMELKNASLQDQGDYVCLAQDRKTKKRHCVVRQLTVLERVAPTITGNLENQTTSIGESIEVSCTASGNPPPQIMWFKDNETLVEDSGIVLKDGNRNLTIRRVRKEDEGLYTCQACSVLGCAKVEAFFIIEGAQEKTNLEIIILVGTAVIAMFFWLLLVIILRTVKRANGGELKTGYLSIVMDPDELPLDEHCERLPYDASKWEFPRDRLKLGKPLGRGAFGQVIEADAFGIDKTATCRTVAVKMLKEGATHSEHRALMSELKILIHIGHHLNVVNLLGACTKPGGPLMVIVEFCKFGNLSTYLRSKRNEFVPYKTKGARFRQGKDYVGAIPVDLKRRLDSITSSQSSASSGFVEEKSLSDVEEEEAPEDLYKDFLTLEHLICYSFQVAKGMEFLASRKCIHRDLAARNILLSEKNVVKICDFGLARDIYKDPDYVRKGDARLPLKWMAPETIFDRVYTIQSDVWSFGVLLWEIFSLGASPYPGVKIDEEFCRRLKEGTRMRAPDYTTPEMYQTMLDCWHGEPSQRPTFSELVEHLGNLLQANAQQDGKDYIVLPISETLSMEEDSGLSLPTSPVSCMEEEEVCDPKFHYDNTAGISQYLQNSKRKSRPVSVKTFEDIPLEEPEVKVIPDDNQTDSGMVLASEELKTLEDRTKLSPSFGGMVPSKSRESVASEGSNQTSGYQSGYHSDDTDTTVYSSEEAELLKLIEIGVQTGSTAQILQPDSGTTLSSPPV
Chain of Tyrosine-protein kinase Fyn (Homo sapiens) (P06241 2-537 limits assumed): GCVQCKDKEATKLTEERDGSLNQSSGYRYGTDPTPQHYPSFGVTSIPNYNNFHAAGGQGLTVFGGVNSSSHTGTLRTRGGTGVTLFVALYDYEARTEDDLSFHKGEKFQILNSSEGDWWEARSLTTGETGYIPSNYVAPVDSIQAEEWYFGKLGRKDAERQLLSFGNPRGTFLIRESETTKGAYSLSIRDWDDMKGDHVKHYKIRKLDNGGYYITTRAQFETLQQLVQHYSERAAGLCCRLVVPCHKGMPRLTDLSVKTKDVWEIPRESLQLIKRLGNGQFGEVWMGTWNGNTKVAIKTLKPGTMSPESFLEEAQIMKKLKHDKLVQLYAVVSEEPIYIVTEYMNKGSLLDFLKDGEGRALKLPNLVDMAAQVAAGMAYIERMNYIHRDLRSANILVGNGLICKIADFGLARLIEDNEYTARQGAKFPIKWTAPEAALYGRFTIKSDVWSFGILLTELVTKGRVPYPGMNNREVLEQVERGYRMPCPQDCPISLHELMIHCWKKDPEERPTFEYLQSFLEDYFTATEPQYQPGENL

Take `Cc1ccc(-c2ccc3c(ccc4sc5c(c43)NC[C@@H](C)NC5=O)n2)cn1`: the % of inhibition in experiment [1] worked out at 4%. Turning to `CN(C)C/C=C/C(=O)Nc1ccc(C(=O)N2CCCC(Nc3ncc(Cl)c(-c4c[nH]c5ccccc45)n3)C2)cc1` (configuration not stated), the % of control in experiment [2] came out at 100%; in experiment [3], 89%; in experiment [4], 38%; in [5], 28%. `CCN(CC)CCCCNc1ncc2cc(-c3cc(OC)cc(OC)c3)c(NC(=O)NC(C)(C)C)nc2n1`: the % of control in [6] was 100%. For `COc1cc(Nc2nc(C)cc(-c3cnn4nc(OC)ccc34)n2)cc(C(F)(F)F)c1`, the % of control in experiment [7] is 91%. Turning to `CN(C)CCOc1ccc(-c2nc(-c3ccncc3)c(-c3ccc4c(c3)CC/C4=N\O)[nH]2)cc1`, on Activated CDC42 kinase 1, the % of control turned out to be 100%. On to `Cc1cnc(Nc2ccc(F)cc2Cl)nc1-c1c[nH]c(C(=O)N[C@H](CO)c2cccc(Cl)c2)c1`, for which the % of inhibition in [8] amounted to 4%. A word on the IC50: it is the point on the concentration scale where inhibition reaches its midpoint. With `Cn1cc(-n2cnc3c(NCc4nc5cc(Cl)c(Cl)cc5[nH]4)nc(N4CCOCC4)nc32)cn1`, in experiment [9], the % of control is -1.19%. For the same molecule, the IC50 against CDK1/Cyclin A was > 10 µM. Consider `CC[C@@H]1[C@H](F)C(=O)N[C@@H]1COc1nccc2cc(C(N)=O)c(OC)cc12` [ZIMLOVISERTIB], for which the % of inhibition is -13.3% in [10] and -2.7% in experiment [11]. With `COc1cc(N(C)c2ccnc3ccc(C(F)(F)F)cc23)cc(OC)c1OC`, in [12], the % binding came out at 91%. On to `CCC(=O)N1CC[C@H](Nc2ncnc3c2CN(c2cnc(OC)c(C(F)(F)F)c2)CC3)C1` [LENIOLISIB], for which the IC50 in experiment [13] is > 10 µM.

For the molecule `N#Cc1cccc(-c2c[nH]c3ncnc(N4CCOCC4)c23)c1`, in experiment [14], the % of control was found to be 100%. As for `CN1Cc2nccc(-c3cn(C)nc3-c3ccc(F)cc3)c2C1=O`, the % of inhibition in experiment [15] is 8%.
